Results taken from US9783551B2, “Pyranochromenyl phenol derivative, and pharmaceutical composition for treating metabolic syndrome or inflammatory disease” (GLACEUM, INC., priority 2013, dated 2017).

Experiments:
[1] = Chemical stability in 1% HCl in MeOH (HPLC); type: physicochemical; conditions: for stability in words: until 3 days (72 hours)
Experimental: (§1) The relative chemical stability of glabridin of Preparation Example 1, Example 3 (Compound 4), Example 4 (Compound 5) and Example 14 (Compound 15) were compared with each other. That is, 50 mg of each of glabridin, Compound 4, Compound 5, and Compound 15 was exactly weighed, dissolved in 50 ml of 1% HCl in MeOH and 10 ml of 1% NaOH in MeOH, and the concentrations of the compounds were examined by HPLC at each time level of 0, 8 hrs, 12 hrs, 24 hrs, 48 hrs, and 72 hrs. At this time, the concentrations of the compounds remaining in 1% HCl in MeOH and 1% NaOH in MeOH were determined using an internal standard (Compound 14 of Example 13). That is, 10 mg of Compound 14 was exactly weighed and dissolved in 100 ml of acetonitrile, 9 ml of this solution was mixed with 1 ml of the sample aliquoted at each time level, the mixture was analyzed by HPLC, and the concentrations of the compounds in the internal standard and in the above samples were determined by comparing the initial values.
(§2) The concentrations of the compounds remaining in 1% HCl in MeOH and 1% NaOH in MeOH at each time level are in the following Table 8 and FIG. 7 and the following Table 9 and FIG. 8, respectively.
(§3) The numerical values exceeding 100% in the following Tables 8 and 9 show those measured at a concentration is slightly higher than the initial measurement value, and this is due to the fact that an average value of the measured values was simply shown without considering a statistical error generated during the measurement. Since the measured value of about 95% or more is deemed to have practically no change in concentration, it may be seen that the compounds of the present invention are excellent in chemical stability.

DIO mice [2] = assay: Organ weights and blood biochemistry of DIO mice after 28 days of administration; type: in vivo, C57BL/6 mice; conditions: 150 mg/kg
Experimental: Five-week-old female C57BL/6 mice (Narabio Co., Ltd.) were purchased and fed with only high-fat diet for at least 10 weeks to produce diet induced obesity ([…]) mice. Samples were exactly taken from Preparation Example 1 (glabridin) and the compounds of Examples of the present invention (Compounds 1 to 5, 7, 9, 11, 14 to 16, 21, and 23) according to the administration dose and put into Falcon tubes, 3 ml of a 0.5% methyl cellulose aqueous solution was added thereto and a vortex mixer was used to primarily mix the ingredients in a soft manner, and then a homogenizer (30,000 rpm, Ultra-Turrax® T10 Basic, IKA) was used to treat the sample for 3 minutes while 1.5 ml of a 0.5% methyl cellulose aqueous solution was added thereto. The sample thus prepared was administered through oral gavage using a disposable plastic syringe once daily for 28 days (4 weeks). The body weight was measured twice a week while the DIO mice were bred in this manner. Based on the data thus calculated, the anti-obesity effect (%) was calculated according to the equation defined as follows. Anti-Obesity Effect={(Body weight of control group)−(Body weight of experimental group)}/(Body weight of control group)×100
After the experiment was performed for 28 days (4 weeks) as described above, blood was simultaneously taken while the experimental animal was finally sacrificed, and each of the organs (liver, heart, kidney, pancreas, fat tissues and the like) was removed to measure the weight and observe peculiar matters.
In Table 3, { }, ( ) and the like were used in order to differentiate experiments which had been performed at different periods. Experiments without the parenthesis were those simultaneously performed under the same conditions.

BV2 microglia cells = assay: BV2 cell NO assay (LPS-induced NO production, Griess reagent); type: cell-based; conditions: Mus musculus, BV-2, LPS 1 μg/ml, 24 hours
How it was run: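 BV2 cells; NO suppression tested only at concentrations showing no cytotoxicity in an MTT assay (0.5 mg/ml MTT, absorbance 540 nm). NO read by absorbance at 540 nm; suppression rate taken as the difference in NO produced between control and treated groups; mean of three repeats.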

RAW264.7 macrophages = assay: RAW264.7 macrophage NO assay (LPS-induced NO production, Griess reagent); type: cell-based; conditions: for IC50: Mus musculus, RAW264.7, NO production, LPS 1 μg/ml, 24 hours; for effect of suppressing the production of NO: RAW264.7 macrophages, in words
How it was run: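 MTT (0.5 mg/ml, 4 h) viability read at 540 nm set non-cytotoxic compound concentrations for the NO test. NO suppression, read by absorbance at 540 nm, was the difference in NO between control and treated groups; values are means of three repeats.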

DIO mice [3] = assay: Anti-obesity effect for DIO mice (body weight); type: in vivo, C57BL/6 mice; conditions: Mus musculus, 672 h; 4 weeks, 150 mg/kg, oral gavage once daily
How it was run: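 Female C57BL/6 mice made obese by ≥10 weeks of high-fat diet; compounds suspended in 0.5% methyl cellulose and given by oral gavage once daily for 28 days. Body weight measured twice weekly; effect (%) = (control weight − treated weight)/control weight × 100.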

[4] = Chemical stability in 1% NaOH in MeOH (HPLC); type: physicochemical; conditions: for stability in words: until 3 days (72 hours)
Experimental: as §1, §2, §3

Compound	concentration of compound remaining [1]; 0 [%]	concentration of compound remaining ([1]; 8 h) [%]	concentration of compound remaining ([1]; 24 h) [%]	concentration of compound remaining ([1]; 48 h) [%]	concentration of compound remaining ([1]; 72 h) [%]	stability in words [1]	IC50 (BV2 microglia cells) [µM]	IC50 (RAW264.7 macrophages) [µM]	effect of suppressing the production of NO (RAW264.7 macrophages)	inhibition in vivo at 150 mg/kg (DIO mice [3]) [%]	concentration of compound remaining [4]; 0 [%]	concentration of compound remaining ([4]; 8 h) [%]	concentration of compound remaining ([4]; 24 h) [%]	concentration of compound remaining ([4]; 48 h) [%]	concentration of compound remaining ([4]; 72 h) [%]	stability in words [4]	also measured
CCCc1ccc(C2COc3c(ccc4c3CCC(C)(C)O4)C2)c(O)c1 (stereo not shown) [Compound 5, 3-(2-hydroxy-4-propylphenyl)-8,8-dimethyl-2,3,4,8,9,10-hexahydropyrano [2,3-f] chromene]	100	102	102	101	101	very stable	3.8	5.2	excellent	19	100	101	102	100	102	very stable	ALT (U/L) (DIO mice [2]; ( ) experiment): (50) U/L; AST (U/L) (DIO mice [2]; ( ) experiment): (131) U/L; BMI (DIO mice [2]; ( ) experiment): (3.0); FFA (μEq/L) (DIO mice [2]; ( ) experiment): (2310) μEq/L; Fat (g), weight of fat removed around the epididymis and the kidney (DIO mice [2]; ( ) experiment): (1.04) g; LDL (mg/dL) (DIO mice [2]; ( ) experiment): (12) mg/dL; Liver (g), weight of liver (DIO mice [2]; ( ) experiment): (1.15) g
CCOc1ccc(C2COc3c(ccc4c3CCC(C)(C)O4)C2)c(O)c1 (stereo not shown) [Compound 15, 3-(2-hydroxy-4-ethoxyphenyl)-8,8-dimethyl-2,3,4,8,9,10-hexahydropyrano [2,3-f] chromene]	100	98	100	98	100	very stable	2.7	6.8	excellent	14	100	100	100	98	100	very stable	ALT (U/L) (DIO mice [2]; experiment without parenthesis): 52 U/L; AST (U/L) (DIO mice [2]; experiment without parenthesis): 143 U/L; BMI (DIO mice [2]; experiment without parenthesis): 3.6; FFA (μEq/L) (DIO mice [2]; experiment without parenthesis): 1760 μEq/L; Fat (g), weight of fat removed around the epididymis and the kidney (DIO mice [2]; experiment without parenthesis): 2.02 g; LDL (DIO mice [2]; experiment without parenthesis): 10 mg/dL; Liver (g), weight of liver (DIO mice [2]; experiment without parenthesis): 1.28 g
